The results in this text go back to patent US20090197917A1, “USE OF RIMONABANT FOR THE PREPARATION OF MEDICAMENTS USEFUL IN THE PREVENTION AND TREATMENT OF TYPE 2 DIABETES” (SANOFI-AVENTIS, priority 2005, published 2009).

One test deals with fa/fa obese Zucker rats. The experiment in a line: Long-term (12 months) treatment of obese Zucker rats: protection of the pancreas. In kind it is in vivo, rat. From the text:
The effect of a long-term (12 months) treatment with rimonabant was studied in Zucker rats with established obesity.
The fa/fa strain of obese Zucker rats is characterized by hyperphagia, obesity, dyslipidaemia and type 2 diabetes.
After 12 months, the fa/fa obese Zucker rats treated with the vehicle show a marked hypertrophy of the pancreas (+38%, p<0.05).

The test system of test [1] is obese subjects with type 2 diabetes. Briefly: Rio-Diabetes clinical study, 12 months, rimonabant 20 mg versus placebo. In kind it is in vivo, human. As to the method: The Rio-Diabetes clinical study, carried out over 12 months in 1045 obese subjects with type 2 diabetes treated by monotherapy (metformin or sulfonylureas) compares the effect of rimonabant at the dose of 20 mg versus a placebo product in weight reduction; the improvement of glycosylated haemoglobin (HbAlc), of glycemia, of insulinaemia and lipid parameters. A low-calorie diet (deficit of 600 Kcal/day) is prescribed for all the patients and is introduced 4 weeks before the start of the treatment period.
The insulin resistance is evaluated by the HOMA (Homeostasis Model Assessment) test described by Matthew D. R. et al. in Diabetologica, 1985, 28, 412-419.

The mark [2] stands for this setting: logistic regression analysis with weight as co-variable.
The mark [3] stands for this setting: rimonabant 20 mg, 12 months, p<0.001.

Take `Cc1c(C(=O)NN2CCCCC2)nn(-c2ccc(Cl)cc2Cl)c1-c1ccc(Cl)cc1` [rimonabant, N-piperidino-5-(4-chlorophenyl)-1-(2,4-dichlorophenyl)-4-methylpyrazole-3-carboxamide]: the “hypertrophy of the pancreas” value in the test with fa/fa obese Zucker rats (3 mg/kg/day, vehicle +38%) is given as “+17%”. Moreover, the “hypertrophy of the pancreas” value in the test on fa/fa obese Zucker rats (10 mg/kg/day, p<0.05, vehicle +38%) is listed as “+1%”. In test [1] (setting [2]), the “effect independent of the weight loss for the improvement in HDL-c” value is listed as “about 55%”, the “effect independent of the weight loss for the improvement in HbAlc” value is on record as “about 55%” and the “effect independent of the weight loss for the triglycerides” value is “about 35%”. Moreover, the “time after which the loss of weight appears stabilized” value in test [1] (rimonabant 20 mg) worked out at 6 months. Further, the “decrease in glycemia on an empty stomach” value in test [1] (rimonabant 20 mg group, 12 months, p<0.001 vs placebo) worked out at 0.64 ± 1.96 mmol/L. The “improvement in insulin resistance evaluated by the HOMA test” value in test [1] (rimonabant 20 mg, 12 months) is given as −0.5±5.7%. Also, in test [1] (setting [3]), the “decrease of triglycerides compared with the placebo group” value was “more than 16.4±3.3%”, the “difference in the reduction of the level of HbAlc compared with the placebo” value is recorded as 0.7±0.1%, the “greater weight loss than that observed in the placebo group” value is 4.2 ± 0.4 kg and the “increase in the HDL-c level compared with the placebo” value is recorded as “greater than 8.4±1.2%”. Further, the “reduction of insulinaemia on an empty stomach” value in test [1] (rimonabant 20 mg, 12 months, p=0.247 vs placebo) is on record as 0.7±9.9 μIU/mL. In test [1] (rimonabant 20 mg, p=0.020), the “reduction in the systolic blood pressure” value amounted to 0.8±12.8 mmHg. Besides, the “reduction in the diastolic blood pressure” value in test [1] (rimonabant 20 mg, p=0.060) is given as 1.9±8.2 mmHg. Besides, the “time at which the reduction of HbAlc is maximum” value in test [1] (rimonabant 20 mg, then maintained up to 12 months) was found to be 9 months. For the same compound, in test [1] (rimonabant combined with a sulfonylurea, p<0.001), the “HbAlc difference compared with the placebo” value stood at 0.7±0.1%. Further, in test [1] (rimonabant combined with metformin, p<0.001), the “HbAlc difference compared with the placebo” value was 0.7±0.1%. The “difference in weight loss compared with the placebo group” value in test [1] (rimonabant-metformin combination, p<0.001) turned out to be 4.3 ± 0.4 kg. Besides, the “difference in weight loss compared with the placebo group” value in test [1] (rimonabant-sulfonylurea combination, p<0.001) came to 3.1 ± 0.5 kg.
